Source: US8609417B2, “Methods and compositions for stem cell cultures” (The Regents of the University of California, priority 2009, dated 2013)
Entries after “also recorded” stand apart in the source; their conditions may differ.

Columns and labels:
mES cells = assay: Cell-cell contact of mES cells (morphology, cell contact index); type: cell-based, mouse
Excerpt: Rho and Rho-associated kinase (Rock) play a role in regulation of cell-cell interactions in pluripotent stem cells. In order to further explore the core mechanism underlying cell-cell adhesions, principle regulators downstream of Rock were examined. Based on functional prescreening non-muscle myosin II was identified as an effector by siRNA-mediated loss of function analysis. Non-muscle Myosin II (myosin II), the two-headed conventional myosin, consists of non-muscle myosin II heavy chain (NMHC) dimers and two sets of myosin light chains (MLCs). […] Among them, all the genes except IIC are expressed in pluripotent stem cells whereas differentiated cells express all three isoforms. […] The specificity and levels of knockdown of the target genes by each siRNA were confirmed by quantitative RT-PCR (QPCR) (FIG. 2). Myosin phosphatase target subunit 1 (MYPT1), a major downstream target of Rock that negatively regulates myosin function through […] of myosin regulatory light chain (MRLC) was examined. MYPT1 was exclusively localized to cell-cell contact sites in mES cells (FIG. 1B). If Rock controls the myosin function through inhibition of MYPT1, depletion of MYPT1 would rescue the intrinsic cell-cell interactions from the robust effect of Y27632 (FIG. 1C).

hiPS cells [1] = assay: Cell growth assay (population doubling time); type: cell-based, human; conditions: hiPS cells on PDL in mTeSR, compound at 5 μM
Protocol: For the cell growth assay, hiPS or hES cells were plated at 2.5×10^4 cells/cm^2 on plates coated with PDL or Matrigel in mTeSR in the presence of blebbistatin at 5 μM or Y-27632 at 5 μM (PDL) or in the absence of compounds (Matrigel). Cells were harvested at the indicated time points, stained with trypan blue, and counted by the hemocytometer.

hiPS cells [2] = assay: Cell viability assay under adherence conditions (trypan blue live cell counting); type: cell-based, human
Protocol: hES or hiPS cells were plated at 1×10^5 cells/well on 12-well plates coated with PDL or Matrigel in mTeSR in the presence or absence of blebbistatin or Y-27632 at various concentrations in triplicates. DMSO (solvent for blebbistatin) was also added in the control condition and found to have no effect on viability. For mES cells, cells were plated under the same condition except for the use of gelatin coating and mES medium. After 24 h, cells were harvested, trypsinized to single cells, and counted by hemocytometer. Cell counting was performed independently by two researchers to confirm the consistency. The same samples were used for TUNEL assay immediately after taking a small fraction of the sample for cell counting.

hES cells = assay: Cell-cell contact of hES cells (morphology, cell contact index); type: cell-based, human; conditions: hES cells grown on Matrigel
Protocol: Rock and myosin II regulate cell-cell interactions in hES cells. To test whether the observed function of RRM signaling in cell-cell contacts in mES cells is conserved in hES cells, H1 cells grown under the feeder-free condition with Matrigel™ and conditioned medium (CM) (FIG. 3A) were treated with C3 exoenzyme. […] Rock-inhibitor treatment also led to cell adhesion defects although it required a higher concentration (20 μM) than that (10 μM) for mES cells (FIG. 3C). Myosin IIA and IIB were colocalized with cell-cell borders in hES cells, which indicates their potential role in cell-cell adhesions (FIG. 3D).

hiPS cells [3] = assay: Cell viability under suspension culture; type: cell-based, human; conditions: hPS cells in suspension, 2 days, various concentrations
Protocol: For the evaluation of cell viability under suspension culture, hES or hiPS cells were plated at 5×10^5 in non-tissue culture-treated 6-well plates with non-conditioned standard hESm containing blebbistatin or Y-27632 at different concentrations in triplicates. After 2 days, cells were harvested with trypsinization and extensive trituration by pipetting, and the number of live cells was manually counted by using hemocytometer and trypan blue staining. The cell survival ratio (%) represents the ratio of the number of live cells to the number of cells plated. The same samples were subjected to TUNEL assay for side by side comparison with the data from cell viability assay.

C[C@@H](N)[C@H]1CC[C@H](C(=O)Nc2ccncc2)CC1 [Y-27632]
Concentration that disassembled cell-cell junctions (mES cells): 10 µM
Population doubling time (hiPS cells [1]): ~32.2 h
Number of viable cells (hiPS cells [2]; hiPS cells on PDL, 10 μM, 24 h after plating 1×10^5 cells/well, n=3): 7.2±1.1×10^4 cells
Concentration that disassembled cell-cell junctions (hES cells): 20 µM

O=S(=O)(c1cccc2c(I)cccc12)N1CCCNCC1 [ML-7]
Effect on survival in suspension culture (hiPS cells [3]): did not show a significant effect on survival; also recorded: No difference in the survival rate
Effect on cell survival (hiPS cells [2]; hiPS cells on PDL-coated dishes, different concentrations): No significant increase in cell survival
